The values below come from ChEMBL document CHEMBL1201862, “PubChem BioAssay data set” (2004).

Activity calls are given as the source filed them.

The target of assay [1] is NAD-dependent protein deacylase sirtuin-5, mitochondrial (Homo sapiens, UniProt Q9NXA8). The assay can be described thus: sirtuin-5 deacylation blockers, concentration series – biochemical, fluorescence imaging, cherry-pick, set 5, dose response (AID 720591).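 Note: desuccinylation of succinyl peptide AMC substrate read as fluorescence after trypsin release; potency of inhibitors that lower fluorescence and may act on trypsin instead.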
NAD-dependent protein deacylase sirtuin-5, mitochondrial, sequence (Q9NXA8 whole entry): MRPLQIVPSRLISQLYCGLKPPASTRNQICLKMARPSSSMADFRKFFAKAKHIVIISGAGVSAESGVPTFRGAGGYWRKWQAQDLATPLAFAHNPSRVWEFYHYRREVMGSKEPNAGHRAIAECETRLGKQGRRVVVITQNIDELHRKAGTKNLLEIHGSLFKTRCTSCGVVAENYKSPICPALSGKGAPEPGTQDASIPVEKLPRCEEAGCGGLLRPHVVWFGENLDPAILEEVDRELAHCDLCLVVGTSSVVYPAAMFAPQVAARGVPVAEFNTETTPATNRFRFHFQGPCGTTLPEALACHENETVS
The nature of assay [2]: viability loss in MITF-independent A375 cells – cell-based, CellTiter-Glo luminescence, dry powder, set 2, counter-screen for MITF inhibitor project, dose response (AID 624489).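 Note: actives are compounds lowering A375 viability meaning general cytotoxicity.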 In kind it is functional. As to conditions: A-375.
Assay [3] can be described thus: cytotoxicity in MITF-independent A375 cells – cell-based, CellTiter-Glo luminescence, dry powder, set 4, counter-screen for MITF inhibitor project, dose response (AID 624364).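 Note: A375 melanoma cells are MITF independent so this is a counter screen.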 It is filed as functional. Particulars: A-375.
The nature of assay [4]: Luminescence Cell-Based Dose Response HTS to Identify Activators of Luciferase Translation or Activity in H4 […] Cells. [Related pubchem assays: 1829 (Project Summary), 1814 (Primary HTS)]. It is filed as functional.
The test system of another assay is H4. The assay can be described thus: Luminescence Cell-Based Dose Response HTS to Identify Activators of 5'UTR Stem-Loop Driven Prion Protein mRNA Translation in H4 Neuroglioblastoma Cells. [Related pubchem assays: 1829 (Project Summary), 1814 (Primary HTS)]. As to conditions: Homo sapiens. It is filed as functional.
In assay [5] the target is T1, Heat shock factor protein 1 (Mus musculus, UniProt P38532).
T1 sequence (P38532 whole entry): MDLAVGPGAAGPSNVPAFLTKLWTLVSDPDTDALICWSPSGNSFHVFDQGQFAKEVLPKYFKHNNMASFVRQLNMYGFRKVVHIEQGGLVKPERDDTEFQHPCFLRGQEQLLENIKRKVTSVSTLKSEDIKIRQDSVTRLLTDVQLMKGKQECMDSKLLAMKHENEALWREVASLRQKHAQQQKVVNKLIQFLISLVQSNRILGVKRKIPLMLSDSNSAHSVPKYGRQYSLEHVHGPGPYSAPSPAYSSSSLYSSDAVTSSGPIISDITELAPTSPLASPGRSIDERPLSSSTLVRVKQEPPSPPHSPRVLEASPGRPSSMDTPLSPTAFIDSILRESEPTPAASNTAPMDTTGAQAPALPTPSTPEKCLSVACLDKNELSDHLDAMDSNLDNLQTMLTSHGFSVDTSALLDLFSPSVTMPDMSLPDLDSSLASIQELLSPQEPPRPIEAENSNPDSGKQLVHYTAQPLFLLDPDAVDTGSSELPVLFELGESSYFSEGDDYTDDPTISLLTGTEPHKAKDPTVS
The assay is described as follows: decrease of HSF1-responsive luciferase luminescence – cell-based, NIH3T3, dose retest, confirmation (AID 2382).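 Note: NIH3T3 fibroblasts with HSF1-driven luciferase reporter stressed by proteasome inhibitor MG132; luminescence from HSF1-driven luciferase expression after 8 hours of MG132 stress.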 It is filed as functional.

The nature of assay [6]: HepG2 cell cytotoxicity, dose response, cytotoxicity control for non-replicating M. tuberculosis project (AID 489018). Particulars: Mycobacterium tuberculosis. It is filed as functional.
Assay [7] can be described thus: Vero E6 cell cytotoxicity, dose response, cytotoxicity control for non-replicating M. tuberculosis project, secondary assay (AID 492998). In kind it is functional, VeroE6. Particulars: Vero C1008.
The next assay deals with HEK293. The assay is described as follows: cells. As to conditions: Homo sapiens. It is filed as functional, cell-based.
Assay [8] is described as follows: viability loss in HepG2 hepatoma cells – cell-based, ATP luminescence, cherry-pick, activator set 2, cytotoxicity control, dose response (AID 1053143). It is filed as functional.
Assay [9] has as its target T2, Nuclear receptor subfamily 0 group B member 1 (Homo sapiens, UniProt P51843).
T2 sequence (P51843 whole entry): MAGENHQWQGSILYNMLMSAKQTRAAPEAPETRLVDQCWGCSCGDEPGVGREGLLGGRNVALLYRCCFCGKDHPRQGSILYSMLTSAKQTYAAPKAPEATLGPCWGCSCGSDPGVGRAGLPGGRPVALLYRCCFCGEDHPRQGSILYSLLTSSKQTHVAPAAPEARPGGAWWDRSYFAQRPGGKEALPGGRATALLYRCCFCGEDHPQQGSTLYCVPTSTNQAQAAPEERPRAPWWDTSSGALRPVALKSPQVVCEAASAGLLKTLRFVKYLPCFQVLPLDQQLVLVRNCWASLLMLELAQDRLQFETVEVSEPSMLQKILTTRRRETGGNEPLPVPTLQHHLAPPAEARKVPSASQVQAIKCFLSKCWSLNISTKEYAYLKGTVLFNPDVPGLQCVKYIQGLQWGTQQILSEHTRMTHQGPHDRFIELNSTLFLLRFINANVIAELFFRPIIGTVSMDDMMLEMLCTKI
The assay can be described thus: Luminescence-based cell-based high throughput dose response assay for inhibitors of the orphan nuclear receptor subfamily 0, group B, member 1 (DAX1; NR0B1). [Related pubchem assays (depositor defined):AID504766, AID504790]. It is filed as functional.

A short description of assay [10]: THP-1 cell cytotoxicity, dose response, cytotoxicity control for non-replicating M. tuberculosis project (AID 489025). It is filed as functional.
The nature of assay [11]: reduced cellular PGC1a acetyl-lysine signal – cell-based, cherry-picked samples, dose response (AID 720514).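 Note: potency may reflect raised or lowered acetylation signal.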 It is filed as functional.
Assay [12] deals with T3, Sentrin-specific protease 8 (Homo sapiens, UniProt Q96LD8).
T3 sequence (Q96LD8 whole entry): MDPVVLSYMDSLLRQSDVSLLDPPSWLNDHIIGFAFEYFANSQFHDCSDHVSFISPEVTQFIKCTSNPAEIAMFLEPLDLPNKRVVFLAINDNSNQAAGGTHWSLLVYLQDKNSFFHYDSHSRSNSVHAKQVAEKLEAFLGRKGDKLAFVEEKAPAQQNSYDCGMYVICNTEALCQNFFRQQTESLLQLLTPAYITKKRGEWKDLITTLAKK
It is filed as functional.

Assay [13] concerns the target T4, Sentrin-specific protease 7 (Homo sapiens, UniProt Q9BQF6).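 Note: Luminescence-based dose-response confirmation of ultra-high-throughput screening hits, measuring inhibition of SENP7.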
T4 sequence (Q9BQF6 whole entry): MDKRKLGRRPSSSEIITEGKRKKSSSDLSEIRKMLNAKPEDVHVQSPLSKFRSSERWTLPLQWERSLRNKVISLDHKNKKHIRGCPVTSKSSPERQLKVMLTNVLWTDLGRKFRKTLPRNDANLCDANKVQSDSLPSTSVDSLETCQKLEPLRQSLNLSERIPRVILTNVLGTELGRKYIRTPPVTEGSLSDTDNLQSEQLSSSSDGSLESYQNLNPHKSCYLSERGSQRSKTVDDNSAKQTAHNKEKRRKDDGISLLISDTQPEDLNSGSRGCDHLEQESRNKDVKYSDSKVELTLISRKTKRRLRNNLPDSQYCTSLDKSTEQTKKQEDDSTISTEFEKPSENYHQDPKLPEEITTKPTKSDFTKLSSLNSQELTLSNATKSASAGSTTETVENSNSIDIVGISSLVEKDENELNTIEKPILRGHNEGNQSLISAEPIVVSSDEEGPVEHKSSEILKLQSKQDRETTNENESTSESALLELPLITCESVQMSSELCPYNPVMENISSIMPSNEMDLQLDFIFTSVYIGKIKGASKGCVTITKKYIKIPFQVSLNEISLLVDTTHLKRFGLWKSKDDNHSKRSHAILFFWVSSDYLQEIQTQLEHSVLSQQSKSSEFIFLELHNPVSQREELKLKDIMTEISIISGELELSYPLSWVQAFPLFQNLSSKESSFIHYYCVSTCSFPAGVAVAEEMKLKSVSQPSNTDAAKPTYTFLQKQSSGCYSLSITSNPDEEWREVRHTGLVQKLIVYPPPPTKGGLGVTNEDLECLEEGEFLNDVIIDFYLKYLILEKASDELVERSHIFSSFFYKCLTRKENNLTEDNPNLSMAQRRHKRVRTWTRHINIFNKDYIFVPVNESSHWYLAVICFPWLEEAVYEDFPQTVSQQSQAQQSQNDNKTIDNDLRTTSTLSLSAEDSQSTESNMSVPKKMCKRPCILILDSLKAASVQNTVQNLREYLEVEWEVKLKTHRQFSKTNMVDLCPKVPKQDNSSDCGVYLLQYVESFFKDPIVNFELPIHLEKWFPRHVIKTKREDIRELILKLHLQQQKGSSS
It is filed as functional.

In assay [14] the target is T5, Sentrin-specific protease 6 (Homo sapiens, UniProt Q9GZR1).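 Note: Luminescence-based dose-response confirmatory assay of SENP6 inhibition, following up an ultra-high-throughput screen.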
T5 sequence (Q9GZR1 whole entry): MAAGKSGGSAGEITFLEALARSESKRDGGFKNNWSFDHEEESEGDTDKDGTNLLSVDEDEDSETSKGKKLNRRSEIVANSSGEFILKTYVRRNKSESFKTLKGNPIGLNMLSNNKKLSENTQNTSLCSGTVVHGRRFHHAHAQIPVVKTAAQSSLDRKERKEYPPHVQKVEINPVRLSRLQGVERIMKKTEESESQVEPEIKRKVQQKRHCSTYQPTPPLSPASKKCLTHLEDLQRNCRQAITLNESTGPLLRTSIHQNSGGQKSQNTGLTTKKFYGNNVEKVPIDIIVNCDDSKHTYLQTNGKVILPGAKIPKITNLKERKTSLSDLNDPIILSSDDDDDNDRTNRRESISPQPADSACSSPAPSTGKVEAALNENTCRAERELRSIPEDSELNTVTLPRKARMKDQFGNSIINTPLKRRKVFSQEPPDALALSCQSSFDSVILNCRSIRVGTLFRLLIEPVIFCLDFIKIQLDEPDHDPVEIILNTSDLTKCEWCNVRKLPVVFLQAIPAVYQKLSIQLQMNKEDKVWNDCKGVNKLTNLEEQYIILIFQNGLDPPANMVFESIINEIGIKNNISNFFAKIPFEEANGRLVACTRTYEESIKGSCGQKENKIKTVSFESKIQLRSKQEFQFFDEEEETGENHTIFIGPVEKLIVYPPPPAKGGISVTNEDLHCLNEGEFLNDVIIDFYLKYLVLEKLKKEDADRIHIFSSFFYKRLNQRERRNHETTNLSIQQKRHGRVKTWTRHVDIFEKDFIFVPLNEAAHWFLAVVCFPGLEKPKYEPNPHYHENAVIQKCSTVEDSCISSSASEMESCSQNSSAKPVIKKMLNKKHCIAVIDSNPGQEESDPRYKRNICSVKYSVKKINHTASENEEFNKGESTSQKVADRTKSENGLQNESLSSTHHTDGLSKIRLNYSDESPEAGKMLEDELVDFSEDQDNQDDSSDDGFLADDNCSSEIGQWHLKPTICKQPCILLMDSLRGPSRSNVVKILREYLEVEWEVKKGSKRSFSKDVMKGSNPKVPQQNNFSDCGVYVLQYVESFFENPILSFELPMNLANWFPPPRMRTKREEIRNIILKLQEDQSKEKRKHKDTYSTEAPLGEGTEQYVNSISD
In kind it is functional.

In the next assay the target is T6, Caspase-3 (Homo sapiens, UniProt P42574).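 Note: Dose-response selectivity test against caspase-3 for candidate inhibitors of sentrin-specific proteases (SENPs).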
T6 sequence (P42574 whole entry): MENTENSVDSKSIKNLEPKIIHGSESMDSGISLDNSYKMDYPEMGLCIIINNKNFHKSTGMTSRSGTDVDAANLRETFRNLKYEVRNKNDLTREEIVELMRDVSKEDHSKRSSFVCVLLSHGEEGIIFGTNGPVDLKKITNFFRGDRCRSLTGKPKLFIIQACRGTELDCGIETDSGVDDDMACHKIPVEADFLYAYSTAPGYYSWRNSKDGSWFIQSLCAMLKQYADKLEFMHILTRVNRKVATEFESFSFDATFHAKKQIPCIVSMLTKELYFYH
It is filed as functional.

In assay [15] the target is T7, Oxysterols receptor LXR-beta (Homo sapiens, UniProt P55055).
T7 sequence (P55055 whole entry): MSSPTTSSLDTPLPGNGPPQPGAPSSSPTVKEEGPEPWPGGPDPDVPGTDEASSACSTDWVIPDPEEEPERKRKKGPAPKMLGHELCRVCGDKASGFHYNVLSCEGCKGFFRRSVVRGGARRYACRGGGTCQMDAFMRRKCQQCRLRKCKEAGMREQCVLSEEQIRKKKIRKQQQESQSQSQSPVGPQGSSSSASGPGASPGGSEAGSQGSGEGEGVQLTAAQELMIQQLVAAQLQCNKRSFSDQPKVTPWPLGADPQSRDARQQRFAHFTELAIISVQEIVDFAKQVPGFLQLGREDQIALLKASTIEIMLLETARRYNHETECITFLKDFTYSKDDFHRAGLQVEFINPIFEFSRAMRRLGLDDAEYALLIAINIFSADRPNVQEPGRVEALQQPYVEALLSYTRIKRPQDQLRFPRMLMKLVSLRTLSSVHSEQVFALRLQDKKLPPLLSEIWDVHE
It is filed as functional, cell-based.

The target in assay [16] is T7, Oxysterols receptor LXR-beta. In kind it is functional, cell-based. This is another data set of the same source.

With `CCOC(=O)Cc1csc(NC(=O)Cn2cnc3c2c(=O)n(C)c(=O)n3C)n1`, in assay [1], the AC50 was > 30 µM (inactive).

With `CN1CCN(C2=C(Nc3ccccc3)C(=O)c3ccccc3C2=O)CC1`, the AC50 in assay [2] was 24 µM (active); in [3], 61.7 µM (active).

For the compound `Nc1ccccc1C(=O)NNC1=C(C(=O)C(F)(F)F)CCC1`, the results for the EC50 (in [4]; in the assay with H4; in assay [5]) were 39.2 µM (active), 21.7 µM (active) and 36.6 µM (active), respectively. The values for the 50% cytotoxic concentration (CC50) in assay [6], in assay [7] and in assay [10] were > 20 µM (active), > 20 µM (active) and 14.1 µM (active), respectively. The concentration for half-maximal inhibition (IC50) in the assay with HEK293 was > 2.5 µM (active); in assay [9], > 67.5 µM (inactive). Moreover, the AC50 in [8] was 26 µM (active).

On to `Cc1ccc(-c2n[nH]c(Nc3ccccc3)n2)cc1`, for which the EC50 in “cells” was > 67.5 µM (inactive).

On to `C[C@@H]1CN([C@H](C)CO)C(=O)c2cccc(NC(=O)c3nc4ccccc4s3)c2O[C@@H]1CN(C)CC1CCCCC1`, for which, in assay [11], the AC50 was 27.1 µM (active).

For `Cc1ccc(-c2nnc(Nc3ccccc3)[nH]2)cc1`, the IC50 in assay [12] is > 100 µM (inactive); in assay [13] it was 7.36 µM (active); in assay [14] it was > 100 µM (inactive); at Caspase-3 it was 40.4 µM (active). Further, the EC50 in assay [15] and in [16] was > 67.5 µM (inactive) in each case.

As usually defined, the AC50 is the concentration at which the activity in the assay is half-maximal. For orientation: EC50 means the concentration that produces a half-maximal response. One may read the CC50 as the concentration at which the toxic effect on the cells reaches its halfway point. What is called IC50 is the point on the concentration scale where inhibition reaches its midpoint.
